According to patent US12486294B2, “Radioisotope labeled compound for imaging or treatment of prostate cancer” (SEOUL NATIONAL UNIVERSITY R&DB FOUNDATION, priority 2019, dated 2025):

Assays:
[1] = Stability test in human serum; assay type: in vitro ADME; details: 36.5° C., after 2 hours
Description: The stability test in human serum is to test the stability when it comes into contact with human serum after administration to the human body, and the stability in the body is partly tested in vitro.
(§1) In order to examine the stability of [^99mTc]Tc-15 according to the present invention in human serum, 3.7 MBq of [^99mTc]Tc-15 (100 μL) prepared in Example 3 was added to 1 mL of human serum, mixed well, and then cultured at 36.5° C. with stirring. After 2 hours, the reaction mixture was analyzed by ITLC.
as §1, with “of [^99mTc]Tc-16” for “of [^99mTc]Tc-15”, “Example 4” for “Example 3”

[2] = test system: PSMA-expressing 22Rv1 tumor; test: SPECT imaging in 22Rv1 cell-transplanted mice; assay type: in vivo, BALB/c nude mouse; details: for tumor intake in SPECT image with PSMA blocked: MIP-1072 injected to selectively block PSMA; for tumor intake in SPECT image: intravenous injection; for distribution observed in SPECT image: 1 hour and 3 hours
Description: Specifically, 0.1 mL of RPMI1640 culture medium containing 5×10^6 22 Rv1 cells was subcutaneously injected into the right back of a 4-week-old male BALE/c nude mouse. After 2 to 3 weeks, the present inventors confirmed that the tumor tissue had reached an appropriate size and used it in the experiment. For animal injection, [^99mTc]Tc-15 and [^99mTc]Tc-16 were each diluted in saline for injection to a concentration of 10.2 MBq/100 μL. […]

[3] = test system: PSMA-targeted 22Rv1 tumor; test: In vivo distribution test in cancer transplantation animals; design: species or system BALB/c male nude mice; details: for intake when PSMA was blocked with PMPA / tissue with highest intake: summary of Tables 2 and 3
Description: Specifically, 0.1 mL of RPMI1640 culture medium containing 5×10^6 22 Rv1 cells was subcutaneously injected into the left flank of a 4-week-old male BALB/c nude mouse. After 2 to 3 weeks, the present inventors confirmed that the tumor tissue had reached an appropriate size and used it in the experiment. For animal injection, [^99mTc]Tc-15 prepared in Example 3 and [^99mTc]Tc-16 prepared in Example 4 were each diluted in saline for injection to a concentration of 0.74 MBq/100 μL. Each of these was injected into the tail vein of the mice transplanted with cancer cells, and after 1 hour and 4 hours, cancer, blood, muscle, heart. Lung, liver, spleen, stomach, small intestine, kidney, bone, and the like were collected and their weight and radioactivity were measured.

PSMA = PSMA (Homo sapiens, UniProt Q04609); details: 22Rv1 cells, 1 hour at 37° C., non-specific binding with 250 μM PMPA, nonlinear regression
Sequence of PSMA (Q04609 whole entry): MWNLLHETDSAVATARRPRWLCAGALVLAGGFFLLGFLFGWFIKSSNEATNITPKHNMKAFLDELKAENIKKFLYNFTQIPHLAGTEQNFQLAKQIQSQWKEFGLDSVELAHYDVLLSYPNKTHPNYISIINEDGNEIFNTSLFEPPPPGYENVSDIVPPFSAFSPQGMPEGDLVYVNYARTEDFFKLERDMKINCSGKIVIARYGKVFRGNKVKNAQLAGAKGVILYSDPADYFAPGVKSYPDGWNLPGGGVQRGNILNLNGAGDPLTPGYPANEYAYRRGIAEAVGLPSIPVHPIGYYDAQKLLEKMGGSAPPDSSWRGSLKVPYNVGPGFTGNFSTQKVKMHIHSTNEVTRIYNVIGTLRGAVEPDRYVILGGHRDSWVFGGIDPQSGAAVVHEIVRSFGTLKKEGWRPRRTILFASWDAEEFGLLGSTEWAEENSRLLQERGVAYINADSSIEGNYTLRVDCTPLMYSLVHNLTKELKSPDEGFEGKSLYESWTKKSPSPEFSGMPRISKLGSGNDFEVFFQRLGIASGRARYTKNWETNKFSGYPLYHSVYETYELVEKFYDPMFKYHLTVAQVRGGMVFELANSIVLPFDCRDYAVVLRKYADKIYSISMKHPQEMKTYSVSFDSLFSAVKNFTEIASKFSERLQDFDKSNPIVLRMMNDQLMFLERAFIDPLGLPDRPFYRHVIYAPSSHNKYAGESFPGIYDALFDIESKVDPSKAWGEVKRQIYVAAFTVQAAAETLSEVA
Description: The PSMA-positive prostate cancer cell line 22Rv1 was placed in a 24-well plate at the density of 1×10^5 cells/well, followed by culture in a 37° C., 5% CO2 incubator for 24 hours. […] 0.5 mL of the diluted solution was taken and put into cultured cells and incubated in a 37° C., 5% CO2 incubator for 1 hour. After removing the culture medium, the cells were washed twice with fresh culture medium, 1 mL of 0.5% sodium dodecyl sulfate (SDS) dissolved in phosphate buffered saline was added thereto, gently shaken to dissolve, and then transferred to a 5 mL disposable plastic test tube. The radioactivity of the tube was measured using a gamma counter. […] Specific binding was obtained by subtracting non-specific binding from total binding, and a saturation curve was drawn. […] From these saturation curves, the dissociation constant, Kd, was calculated by nonlinear regression using GraphPad Prism 7 program.

[4] = 1 h Blockade, co-injection of 2-PMPA (100 μg)
[5] = 4 h Blockade, co-injection of 2-PMPA (100 μg)

[99Tc+].[C-]#[N+]CCC(=O)NCCCCCC(=O)NCCCCC(NC(=O)N[C@@H](CCC(=O)O)C(=O)O)C(=O)O.[C-]#[N+]CCC(=O)NCCCCCC(=O)NCCCCC(NC(=O)N[C@@H](CCC(=O)O)C(=O)O)C(=O)O.[C-]#[N+]CCC(=O)NCCCCCC(=O)NCCCCC(NC(=O)N[C@@H](CCC(=O)O)C(=O)O)C(=O)O.[C-]#[O+].[C-]#[O+].[C-]#[O+] (some centres unmarked) [[^99mTc]Tc-15]
stability in human serum (ITLC) [1]: most of them were present as [^99mTc]Tc-15 and hardly separated as ^99mTc | tumor intake in SPECT image with PSMA blocked [2]: tumor intake was not observed | tumor intake in SPECT image ([2]; 1 hour and 3 hours after the injection): no clear intake was observed | distribution observed in SPECT image ([2]; tail vein injection): not only excreted by the kidney but also ingested into the prostate cancer tissue | In vivo distribution, Blood ([3]; 1 h): 0.60 % ID/g | In vivo distribution, Bone ([3]; 1 h): 0.34 % ID/g | In vivo distribution, Heart ([3]; 1 h): 0.22 % ID/g | In vivo distribution, Intestine ([3]; 1 h): 0.78 % ID/g | In vivo distribution, Kidney ([3]; 1 h): 59.59 % ID/g | In vivo distribution, Liver ([3]; 1 h): 0.94 % ID/g | In vivo distribution, Lung ([3]; 1 h): 0.64 % ID/g | In vivo distribution, Muscle ([3]; 1 h): 0.17 % ID/g | In vivo distribution, Spleen ([3]; 1 h): 0.90 % ID/g | In vivo distribution, Stomach ([3]; 1 h): 0.31 % ID/g | In vivo distribution, Tumor ([3]; 1 h): 1.48 % ID/g | Tumor/blood ([3]; 1 h): 2.5 | Tumor/kidney ([3]; 1 h): 0.02 | Tumor/liver ([3]; 1 h): 1.57 | Tumor/muscle ([3]; 1 h): 8.5 | In vivo distribution, Blood [3, 4]: 0.52 % ID/g | In vivo distribution, Bone [3, 4]: 0.26 % ID/g | In vivo distribution, Heart [3, 4]: 0.16 % ID/g | In vivo distribution, Intestine [3, 4]: 0.55 % ID/g | In vivo distribution, Kidney [3, 4]: 4.22 % ID/g | In vivo distribution, Liver [3, 4]: 0.84 % ID/g | In vivo distribution, Lung [3, 4]: 0.61 % ID/g | In vivo distribution, Muscle [3, 4]: 0.11 % ID/g | In vivo distribution, Spleen [3, 4]: 0.15 % ID/g | In vivo distribution, Stomach [3, 4]: 0.17 % ID/g | In vivo distribution, Tumor [3, 4]: 0.38 % ID/g | Tumor/blood [3, 4]: 0.73 | Tumor/kidney [3, 4]: 0.09 | Tumor/liver [3, 4]: 0.45 | Tumor/muscle [3, 4]: 3.5 | In vivo distribution, Blood ([3]; 4 h): 0.31 % ID/g | In vivo distribution, Bone ([3]; 4 h): 0.16 % ID/g | In vivo distribution, Heart ([3]; 4 h): 0.12 % ID/g | In vivo distribution, Intestine ([3]; 4 h): 0.81 % ID/g | In vivo distribution, Kidney ([3]; 4 h): 13.72 % ID/g | In vivo distribution, Liver ([3]; 4 h): 0.85 % ID/g | In vivo distribution, Lung ([3]; 4 h): 0.30 % ID/g | In vivo distribution, Muscle ([3]; 4 h): 0.08 % ID/g | In vivo distribution, Spleen ([3]; 4 h): 0.26 % ID/g | In vivo distribution, Stomach ([3]; 4 h): 0.15 % ID/g | In vivo distribution, Tumor ([3]; 4 h): 0.81 % ID/g | Tumor/blood ([3]; 4 h): 2.6 | Tumor/kidney ([3]; 4 h): 0.06 | Tumor/liver ([3]; 4 h): 0.96 | Tumor/muscle ([3]; 4 h): 10.4 | In vivo distribution, Blood [3, 5]: 0.31 % ID/g | In vivo distribution, Bone [3, 5]: 0.20 % ID/g | In vivo distribution, Heart [3, 5]: 0.10 % ID/g | In vivo distribution, Intestine [3, 5]: 0.97 % ID/g | In vivo distribution, Kidney [3, 5]: 1.44 % ID/g | In vivo distribution, Liver [3, 5]: 0.84 % ID/g | In vivo distribution, Lung [3, 5]: 0.30 % ID/g | In vivo distribution, Muscle [3, 5]: 0.08 % ID/g | In vivo distribution, Spleen [3, 5]: 0.16 % ID/g | In vivo distribution, Stomach [3, 5]: 0.14 % ID/g | In vivo distribution, Tumor [3, 5]: 0.20 % ID/g | Tumor/blood [3, 5]: 0.65 | Tumor/kidney [3, 5]: 0.14 | Tumor/liver [3, 5]: 0.24 | Tumor/muscle [3, 5]: 2.71 | intake when PSMA was blocked with PMPA [3]: the intake was decreased | tissue with highest intake [3]: the highest intake in the kidney | Kd (PSMA): 5.5 nM

[99Tc+].[C-]#[N+]CCC(=O)NCCCCCC(=O)NC(Cc1ccccc1)C(=O)N[C@H](Cc1ccccc1)C(=O)NCCCCCC(=O)NCCCCC(NC(=O)N[C@@H](CCC(=O)O)C(=O)O)C(=O)O.[C-]#[N+]CCC(=O)NCCCCCC(=O)NC(Cc1ccccc1)C(=O)N[C@H](Cc1ccccc1)C(=O)NCCCCCC(=O)NCCCCC(NC(=O)N[C@@H](CCC(=O)O)C(=O)O)C(=O)O.[C-]#[N+]CCC(=O)NCCCCCC(=O)NC(Cc1ccccc1)C(=O)N[C@H](Cc1ccccc1)C(=O)NCCCCCC(=O)NCCCCC(NC(=O)N[C@@H](CCC(=O)O)C(=O)O)C(=O)O.[C-]#[O+].[C-]#[O+].[C-]#[O+] (some centres unmarked) [[^99mTc]Tc-16]
stability in human serum (ITLC) [1]: most of them were present as [^99mTc]Tc-16 and hardly separated as ^99mTc | tumor intake in SPECT image with PSMA blocked [2]: tumor intake was not observed | tumor intake in SPECT image ([2]; 1 hour after the injection): the increase in radioactivity was evident | tumor intake in SPECT image ([2]; 4 hours after the injection): the intake was more distinct | distribution observed in SPECT image ([2]; tail vein injection): not only excreted by the kidney but also ingested into the prostate cancer tissue | intake in prostate cancer in SPECT image, compared between the two labeled compounds ([2]; tail vein injection, FIGS. 4A and 5A): higher intake in prostate cancer | In vivo distribution, Blood ([3]; 1 h): 0.42 % ID/g | In vivo distribution, Bone ([3]; 1 h): 0.63 % ID/g | In vivo distribution, Heart ([3]; 1 h): 0.36 % ID/g | In vivo distribution, Intestine ([3]; 1 h): 0.47 % ID/g | In vivo distribution, Kidney ([3]; 1 h): 24.66 % ID/g | In vivo distribution, Liver ([3]; 1 h): 1.17 % ID/g | In vivo distribution, Lung ([3]; 1 h): 0.52 % ID/g | In vivo distribution, Muscle ([3]; 1 h): 0.13 % ID/g | In vivo distribution, Spleen ([3]; 1 h): 3.40 % ID/g | In vivo distribution, Stomach ([3]; 1 h): 0.85 % ID/g | In vivo distribution, Tail ([3]; 1 h): 0.49 % ID/g | In vivo distribution, Tumor ([3]; 1 h): 1.87 % ID/g | Tumor/blood ([3]; 1 h): 4.43 | Tumor/kidney ([3]; 1 h): 0.08 | Tumor/liver ([3]; 1 h): 1.60 | Tumor/muscle ([3]; 1 h): 14.05 | In vivo distribution, Blood [3, 4]: 0.75 % ID/g | In vivo distribution, Bone [3, 4]: 1.16 % ID/g | In vivo distribution, Heart [3, 4]: 0.48 % ID/g | In vivo distribution, Intestine [3, 4]: 0.85 % ID/g | In vivo distribution, Kidney [3, 4]: 5.66 % ID/g | In vivo distribution, Liver [3, 4]: 1.95 % ID/g | In vivo distribution, Lung [3, 4]: 1.63 % ID/g | In vivo distribution, Muscle [3, 4]: 0.22 % ID/g | In vivo distribution, Spleen [3, 4]: 0.40 % ID/g | In vivo distribution, Stomach [3, 4]: 1.04 % ID/g | In vivo distribution, Tail [3, 4]: 1.18 % ID/g | In vivo distribution, Tumor [3, 4]: 0.45 % ID/g | Tumor/blood [3, 4]: 0.61 | Tumor/kidney [3, 4]: 0.08 | Tumor/liver [3, 4]: 0.23 | Tumor/muscle [3, 4]: 2.16 | In vivo distribution, Blood ([3]; 4 h): 0.17 % ID/g | In vivo distribution, Bone ([3]; 4 h): 1.04 % ID/g | In vivo distribution, Heart ([3]; 4 h): 0.25 % ID/g | In vivo distribution, Intestine ([3]; 4 h): 1.48 % ID/g | In vivo distribution, Kidney ([3]; 4 h): 39.65 % ID/g | In vivo distribution, Liver ([3]; 4 h): 0.69 % ID/g | In vivo distribution, Lung ([3]; 4 h): 0.36 % ID/g | In vivo distribution, Muscle ([3]; 4 h): 0.07 % ID/g | In vivo distribution, Spleen ([3]; 4 h): 3.44 % ID/g | In vivo distribution, Stomach ([3]; 4 h): 0.42 % ID/g | In vivo distribution, Tail ([3]; 4 h): 0.48 % ID/g | In vivo distribution, Tumor ([3]; 4 h): 2.83 % ID/g | Tumor/blood ([3]; 4 h): 16.70 | Tumor/kidney ([3]; 4 h): 0.07 | Tumor/liver ([3]; 4 h): 4.17 | Tumor/muscle ([3]; 4 h): 40.43 | In vivo distribution, Blood [3, 5]: 0.15 % ID/g | In vivo distribution, Bone [3, 5]: 0.47 % ID/g | In vivo distribution, Heart [3, 5]: 0.11 % ID/g | In vivo distribution, Intestine [3, 5]: 1.26 % ID/g | In vivo distribution, Kidney [3, 5]: 3.59 % ID/g | In vivo distribution, Liver [3, 5]: 1.33 % ID/g | In vivo distribution, Lung [3, 5]: 0.45 % ID/g | In vivo distribution, Muscle [3, 5]: 0.05 % ID/g | In vivo distribution, Spleen [3, 5]: 0.20 % ID/g | In vivo distribution, Stomach [3, 5]: 0.23 % ID/g | In vivo distribution, Tail [3, 5]: 0.53 % ID/g | In vivo distribution, Tumor [3, 5]: 0.39 % ID/g | Tumor/blood [3, 5]: 2.67 | Tumor/kidney [3, 5]: 0.11 | Tumor/liver [3, 5]: 0.30 | Tumor/muscle [3, 5]: 8.44 | intake when PSMA was blocked with PMPA [3]: the intake was decreased | tissue with highest intake [3]: the highest intake in the kidney | Kd (PSMA): 0.2 nM
